Laboratory results reported in patent US20250354195A1, “METHOD OF SCREENING” (UNIVERSITY OF DUNDEE, priority 2024, published 2025).

Target: T1, GSK3β (Homo sapiens, UniProt P49841+Q96SW2)
T1 construct: genetically engineered using CRISPR/Cas9 technology to endogenously tag GSK3p protein with HiBiT tag at the C-terminus; host or cells: HEK293 cells, CRISPR/Cas9 knock-in of HiBiT at the endogenous GSK3B locus
Experiment: High throughput screening for GSK3β-HiBiT targeted degradation (Nano-Glo HiBiT Lytic luminescence)
Type: cell-based
Details: HEK293 cells with endogenously HiBiT-tagged GSK3β, 24 h incubation, products of one-pot plate array (FIG. 1, Method A); for DC50: 0.01-30 μM, read-out: DC50 (half-maximal degradation concentration)
Procedure: High throughput Screening for GSK3 β-HiBiTL: Test compounds were transferred into Echo plate (Beckman, 001-12782, Echo LDV384) using BRAVO automated liquid handling platform which serves as source plate (10 mM stocks in DMSO). Serial dilutions of the compounds were done using Echo550 liquid handler as 30 μM, 10 μM, 3 μM, 1 μM, 0.3 μM, 0.1 μM, 0.03 μM and 0.01 μM in final concentrations in assay plates. One column of each assay plate was reserved for DMSO control treatments. After compounds were serially diluted in assay plates, HEK293 cells (CRL-1573, ATCC) genetically engineered using CRISPR/Cas9 technology to endogenously tag GSK3p protein with HiBiT tag at the C-terminus (Schwinn et al., 2018, CRISPR-mediated tagging of endogenous proteins with a luminescent peptide, ACS Chem. Biol., 13(2), 467-74) were seeded at a density of 5000 cells/well in 50 μL complete media in 384-well TC-grade white plates (Perkin Elmer, Culturplate, 6007619) with the help of Multidrop Combi liquid dispenser and cells were incubated for 24 h with compounds at 37° C. in humidified incubators with 5% CO2. At the end of the treatment, equal volume of Nano-Glo HiBiT Lytic reagent (Promega N3030) supplied with Nano-Glo HiBiT Lytic substrate and LgBiT Protein were added into each well according to manufacturer's instructions, and cells were incubated on an orbital shaker for 15 seconds and for a further 15 minutes at room temperature. Luminescence signals were measured in an appropriate plate reader (PHERAstar FSX, BMG Labtech) (Dixon et al., 2016, NanoLuc complementation reporter optimized for accurate measurement of protein interactions in cells, ACS Chem. Biol., 11, 400-8). Changes in protein abundance upon compound treatment were further analysed by normalising raw luminescence values to DMSO values and fold changes were plotted using for parameter logistic regression with GraphPad Prism (10.1.2).
Furthermore, the present investigators have shown that bifunctional compounds manufactured using the method of the present disclosure may be effective in the uses of bifunctional compounds, for example as PROTACs in targeted protein degradation (TPD). […] GSK3p was targeted for degradation using a binder for GSK3p, and a binder for CRBN; the binders were comprised in molecules comprising moieties for reacting with the orthogonally reactive moieties of the linker. […] The “identifier” identifies the well of the multi-well plate that has been sampled, e.g., AHD2B-1-A1 relates to the top left well in FIG. 1. The DC50 provides an indication of the potency of the bifunctional compound in targeted degradation; Dmax provides an indication of the maximum possible degradation. The use of these metrics is further described in Flexible Fitting of PROTAC Concentration-Response Curves with Changepoint Gaussian Processes, Semenova et al., SLAS Discovery, 2021, 26, 1212-1224.

T1 sequence (P49841 whole entry): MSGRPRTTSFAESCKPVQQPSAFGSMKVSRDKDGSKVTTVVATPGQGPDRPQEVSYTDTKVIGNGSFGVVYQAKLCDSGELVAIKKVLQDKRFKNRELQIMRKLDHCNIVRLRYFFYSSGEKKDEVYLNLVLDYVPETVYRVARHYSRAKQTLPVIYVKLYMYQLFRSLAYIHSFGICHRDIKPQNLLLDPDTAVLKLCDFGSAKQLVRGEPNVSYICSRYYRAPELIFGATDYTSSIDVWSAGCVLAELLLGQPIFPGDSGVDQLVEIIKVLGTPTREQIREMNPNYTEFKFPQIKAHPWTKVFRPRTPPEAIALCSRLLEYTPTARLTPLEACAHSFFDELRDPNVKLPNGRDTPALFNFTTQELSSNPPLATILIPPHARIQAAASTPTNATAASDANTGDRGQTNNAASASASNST
T1 sequence (Q96SW2 whole entry): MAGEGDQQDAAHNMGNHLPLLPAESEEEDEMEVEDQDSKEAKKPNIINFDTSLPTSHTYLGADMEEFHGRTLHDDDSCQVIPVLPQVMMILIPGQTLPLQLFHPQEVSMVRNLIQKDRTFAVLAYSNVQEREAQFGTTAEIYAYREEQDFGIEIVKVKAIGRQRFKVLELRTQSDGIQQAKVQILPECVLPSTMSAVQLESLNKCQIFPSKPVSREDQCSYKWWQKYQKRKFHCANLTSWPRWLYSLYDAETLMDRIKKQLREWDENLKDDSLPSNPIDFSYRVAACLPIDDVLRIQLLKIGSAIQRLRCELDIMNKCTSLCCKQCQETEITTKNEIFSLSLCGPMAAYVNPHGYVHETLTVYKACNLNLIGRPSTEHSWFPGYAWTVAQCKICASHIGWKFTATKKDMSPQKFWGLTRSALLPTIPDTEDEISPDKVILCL
T1 sequence (Q16531 whole entry partner): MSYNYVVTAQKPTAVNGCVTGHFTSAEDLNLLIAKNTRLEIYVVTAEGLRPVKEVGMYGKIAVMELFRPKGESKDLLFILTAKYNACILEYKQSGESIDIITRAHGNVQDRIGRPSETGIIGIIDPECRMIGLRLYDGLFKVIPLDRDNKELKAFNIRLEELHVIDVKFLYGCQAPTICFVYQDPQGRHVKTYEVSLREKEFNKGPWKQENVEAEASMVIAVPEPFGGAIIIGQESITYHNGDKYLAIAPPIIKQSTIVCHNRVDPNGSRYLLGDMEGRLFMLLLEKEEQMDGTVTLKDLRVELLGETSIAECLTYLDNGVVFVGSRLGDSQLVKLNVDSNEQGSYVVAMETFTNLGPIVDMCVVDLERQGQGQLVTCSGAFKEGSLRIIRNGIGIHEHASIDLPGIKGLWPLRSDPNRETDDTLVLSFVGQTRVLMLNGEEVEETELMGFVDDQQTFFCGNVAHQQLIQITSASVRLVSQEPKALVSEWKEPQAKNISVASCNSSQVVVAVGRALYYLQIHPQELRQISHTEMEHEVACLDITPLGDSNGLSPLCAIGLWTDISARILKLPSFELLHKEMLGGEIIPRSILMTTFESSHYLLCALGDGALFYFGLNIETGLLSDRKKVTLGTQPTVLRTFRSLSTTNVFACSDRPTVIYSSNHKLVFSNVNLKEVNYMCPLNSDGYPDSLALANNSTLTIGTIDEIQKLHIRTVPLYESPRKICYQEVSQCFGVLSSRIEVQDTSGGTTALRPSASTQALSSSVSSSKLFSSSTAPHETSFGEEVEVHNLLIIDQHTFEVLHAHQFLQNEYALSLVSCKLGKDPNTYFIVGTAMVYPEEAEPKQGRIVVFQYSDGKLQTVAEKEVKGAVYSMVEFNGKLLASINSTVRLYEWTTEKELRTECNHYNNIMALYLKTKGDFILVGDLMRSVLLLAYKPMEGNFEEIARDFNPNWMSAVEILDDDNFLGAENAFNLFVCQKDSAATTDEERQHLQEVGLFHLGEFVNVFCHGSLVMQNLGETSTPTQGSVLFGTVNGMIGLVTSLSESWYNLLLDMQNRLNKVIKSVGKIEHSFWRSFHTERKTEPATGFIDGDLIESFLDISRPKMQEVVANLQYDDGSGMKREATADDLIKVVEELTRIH

Row | Structure (SMILES) | DC50 [µM] | Dmax (maximal effect) [%]
1 | COc1ccc(-c2ocnc2C(=O)NCCCn2cc(-c3cccc(CN4CCN(Cc5ccc(N6CCC(=O)NC6=O)cc5)CC4)n3)nn2)cc1Cl [AHD2B-1-G8] | > 10 | <30
2 | COc1ccc(-c2ocnc2C(=O)NCCCn2cc(COc3ccc(CN4CC5(C4)CN(Cc4ccc(C(=O)NC6CCC(=O)NC6=O)nc4)C5)cc3)nn2)cc1Cl (centres unmarked) [AHD2B-1-F11] | > 10 | <30
3 | COc1ccc(-c2ocnc2C(=O)NCCCn2cc(CCCCCN3CCN(Cc4ccc(N5CCC(=O)NC5=O)cc4)CC3)nn2)cc1Cl [AHD2B-1-G7] | > 10 | <30
4 | COc1ccc(-c2ocnc2C(=O)NCCCn2cc(CCCOc3ccc(CN4CCN(CC(=O)N[C@H](C(=O)N5C[C@H](O)C[C@H]5C(=O)NCc5ccc(-c6scnc6C)cc5)C(C)(C)C)CC4)cc3)nn2)cc1Cl [AHD2B-1-B4] | > 10 | <30
5 | COc1ccc(-c2ocnc2C(=O)NCCCn2cc(COC3CCN(CC(=O)N[C@H](C(=O)N4C[C@H](O)C[C@H]4C(=O)NCc4ccc(-c5scnc5C)cc4)C(C)(C)C)CC3)nn2)cc1Cl [AHD2B-1-B5] | > 10 | <30
6 | COc1ccc(-c2ocnc2C(=O)NCCCn2cc(COC3CCN(Cc4ccc5c(N6CCC(=O)NC6=O)nn(C)c5c4)CC3)nn2)cc1Cl [AHD2B-1-D5] | 0.55 | 35
7 | COc1ccc(-c2ocnc2C(=O)NCCCn2cc(CCCCN3CCN(CC(=O)N[C@H](C(=O)N4C[C@H](O)C[C@H]4C(=O)NCc4ccc(-c5scnc5C)cc4)C(C)(C)C)CC3)nn2)cc1Cl [AHD2B-1-B1] | > 10 | <30
8 | COc1ccc(-c2ocnc2C(=O)NCCCn2cc(CCCOc3ccc(CN4CCN(Cc5ccc6c(N7CCC(=O)NC7=O)nn(C)c6c5)CC4)cc3)nn2)cc1Cl [AHD2B-1-D4] | < 0.25 | 41
9 | COc1ccc(-c2ocnc2C(=O)NCCCn2cc(-c3ccc(CN4CCN(Cc5cccc(N6CCC(=O)NC6=O)c5)CC4)cn3)nn2)cc1Cl [AHD2B-1-A2] | > 10 | <30
10 | COc1ccc(-c2ocnc2C(=O)NCCCn2cc(COc3ccc(CN4CCC5(C4)CN(CC(=O)N[C@H](C(=O)N4C[C@H](O)C[C@H]4C(=O)NCc4ccc(-c6scnc6C)cc4)C(C)(C)C)C5)cc3)nn2)cc1Cl [AHD2B-1-B6] | > 10 | <30
11 | COc1ccc(-c2ocnc2C(=O)NCCCn2cc(COc3ccc(CN4CCC5(C4)CN(Cc4ccc(C(=O)NC6CCC(=O)NC6=O)nc4)C5)cc3)nn2)cc1Cl (centres unmarked) [AHD2B-1-F6] | 1.1 | 34
12 | COc1ccc(-c2ocnc2C(=O)NCCCn2cc(-c3cccc(CN4CCN(Cc5ccc(C(=O)NC6CCC(=O)NC6=O)nc5)CC4)n3)nn2)cc1Cl (centres unmarked) [AHD2B-1-F8] | > 10 | <30
13 | COc1ccc(-c2ocnc2C(=O)NCCCn2cc(CCCCN3CCN(Cc4ccc(N5CCC(=O)NC5=O)cc4)CC3)nn2)cc1Cl [AHD2B-1-G1] | > 10 | <30
14 | COc1ccc(-c2ocnc2C(=O)NCCCn2cc(COc3ccc(CN4CCN(Cc5cccc(N6CCC(=O)NC6=O)c5)CC4)cc3)nn2)cc1Cl [AHD2B-1-A3] | > 10 | <30
15 | COc1ccc(-c2ocnc2C(=O)NCCCn2cc(COc3ccc(CN4CC5(CN(CC(=O)N[C@H](C(=O)N6C[C@H](O)C[C@H]6C(=O)NCc6ccc(-c7scnc7C)cc6)C(C)(C)C)C5)C4)cc3)nn2)cc1Cl [AHD2B-1-B11] | > 10 | <30
16 | COc1ccc(-c2ocnc2C(=O)NCCCn2cc(CCCCN3CCN(Cc4ccc5c(N6CCC(=O)NC6=O)nn(C)c5c4)CC3)nn2)cc1Cl [AHD2B-1-D1] | 2.1 | 49
17 | COc1ccc(-c2ocnc2C(=O)NCCCn2cc(-c3ccc(CN4CCN(CC(=O)N[C@H](C(=O)N5C[C@H](O)C[C@H]5C(=O)NCc5ccc(-c6scnc6C)cc5)C(C)(C)C)CC4)cn3)nn2)cc1Cl [AHD2B-1-B2] | > 10 | <30

Row | Structure (SMILES) | DC50 [µM] | Dmax (maximal effect) [%]
18 | COc1ccc(-c2ocnc2C(=O)NCCCn2cc(-c3cccc(CN4CCN(Cc5ccc(C(=O)NC6CCC(=O)NC6=O)c(F)c5)CC4)n3)nn2)cc1Cl (centres unmarked) [AHD2B-1-C8] | > 10 | <30
19 | COc1ccc(-c2ocnc2C(=O)NCCCn2cc(CCCOc3ccc(CN4CCN(Cc5cccc(N6CCC(=O)NC6=O)c5)CC4)cc3)nn2)cc1Cl [AHD2B-1-A4] | > 10 | <30
20 | COc1ccc(-c2ocnc2C(=O)NCCCn2cc(COCCOCCN3CCN(Cc4ccc(C(=O)NC5CCC(=O)NC5=O)c(F)c4)CC3)nn2)cc1Cl (centres unmarked) [AHD2B-1-C10] | > 10 | <30
21 | COc1ccc(-c2ocnc2C(=O)NCCCn2cc(CCCCN3CCN(Cc4ccc(C(=O)NC5CCC(=O)NC5=O)nc4)CC3)nn2)cc1Cl (centres unmarked) [AHD2B-1-F1] | > 10 | <30
22 | COc1ccc(-c2ocnc2C(=O)NCCCn2cc(CCCCCN3CCN(Cc4cccc(N5CCC(=O)NC5=O)c4)CC3)nn2)cc1Cl [AHD2B-1-A7] | > 10 | <30
23 | COc1ccc(-c2ocnc2C(=O)NCCCn2cc(COCCOCCN3CCN(Cc4cccc(N5CCC(=O)NC5=O)c4)CC3)nn2)cc1Cl [AHD2B-1-A10] | > 10 | <30
24 | COc1ccc(-c2ocnc2C(=O)NCCCn2cc(COc3ccc(CN4CCN(CC(=O)N[C@H](C(=O)N5C[C@H](O)C[C@H]5C(=O)NCc5ccc(-c6scnc6C)cc5)C(C)(C)C)CC4)cc3)nn2)cc1Cl [AHD2B-1-B3] | > 10 | <30
25 | COc1ccc(-c2ocnc2C(=O)NCCCn2cc(CCCOc3ccc(CN4CCN(Cc5ccc(C(=O)NC6CCC(=O)NC6=O)c(F)c5)CC4)cc3)nn2)cc1Cl (centres unmarked) [AHD2B-1-C4] | < 0.25 | 53
26 | COc1ccc(-c2ocnc2C(=O)NCCCn2cc(COCCOCCN3CCN(Cc4ccc(C(=O)NC5CCC(=O)NC5=O)nc4)CC3)nn2)cc1Cl (centres unmarked) [AHD2B-1-F10] | > 10 | <30
27 | COc1ccc(-c2ocnc2C(=O)NCCCn2cc(COc3ccc(CN4CCC5(C4)CN(Cc4ccc(C(=O)NC6CCC(=O)NC6=O)c(F)c4)C5)cc3)nn2)cc1Cl (centres unmarked) [AHD2B-1-C6] | 1.6 | 59
28 | COc1ccc(-c2ocnc2C(=O)NCCCn2cc(CCCN3CCN(Cc4ccc(N5CCC(=O)NC5=O)cc4)CC3)nn2)cc1Cl [AHD2B-1-G12] | > 10 | <30
29 | COc1ccc(-c2ocnc2C(=O)NCCCn2cc(CCCCCN3CCCN(CC(=O)N[C@H](C(=O)N4C[C@H](O)C[C@H]4C(=O)NCc4ccc(-c5scnc5C)cc4)C(C)(C)C)CC3)nn2)cc1Cl [AHD2B-1-B9] | > 10 | <30
30 | COc1ccc(-c2ocnc2C(=O)NCCCn2cc(CCCCCN3CCCN(Cc4ccc(N5CCC(=O)NC5=O)cc4)CC3)nn2)cc1Cl [AHD2B-1-G9] | > 10 | <30
31 | COc1ccc(-c2ocnc2C(=O)NCCCn2cc(CCCN3CCN(Cc4ccc(C(=O)NC5CCC(=O)NC5=O)nc4)CC3)nn2)cc1Cl (centres unmarked) [AHD2B-1-F12] | > 10 | <30
32 | COc1ccc(-c2ocnc2C(=O)NCCCn2cc(-c3ccc(CN4CCN(Cc5ccc(N6CCC(=O)NC6=O)cc5)CC4)cn3)nn2)cc1Cl [AHD2B-1-G2] | > 10 | <30
33 | COc1ccc(-c2ocnc2C(=O)NCCCn2cc(CCCOc3ccc(CN4CCN(Cc5ccc(C(=O)NC6CCC(=O)NC6=O)nc5)CC4)cc3)nn2)cc1Cl (centres unmarked) [AHD2B-1-F4] | 0.25 | 32
34 | COc1ccc(-c2ocnc2C(=O)NCCCn2cc(COCCOCCN3CCN(Cc4ccc(N5CCC(=O)NC5=O)cc4)CC3)nn2)cc1Cl [AHD2B-1-G10] | > 10 | <30
